By IC50 is commonly meant the concentration at which inhibition is half-maximal.

The experiment has as its target T1, Toll-like receptor 7 (Homo sapiens, UniProt Q9NYK1).
T1 sequence (Q9NYK1 whole entry): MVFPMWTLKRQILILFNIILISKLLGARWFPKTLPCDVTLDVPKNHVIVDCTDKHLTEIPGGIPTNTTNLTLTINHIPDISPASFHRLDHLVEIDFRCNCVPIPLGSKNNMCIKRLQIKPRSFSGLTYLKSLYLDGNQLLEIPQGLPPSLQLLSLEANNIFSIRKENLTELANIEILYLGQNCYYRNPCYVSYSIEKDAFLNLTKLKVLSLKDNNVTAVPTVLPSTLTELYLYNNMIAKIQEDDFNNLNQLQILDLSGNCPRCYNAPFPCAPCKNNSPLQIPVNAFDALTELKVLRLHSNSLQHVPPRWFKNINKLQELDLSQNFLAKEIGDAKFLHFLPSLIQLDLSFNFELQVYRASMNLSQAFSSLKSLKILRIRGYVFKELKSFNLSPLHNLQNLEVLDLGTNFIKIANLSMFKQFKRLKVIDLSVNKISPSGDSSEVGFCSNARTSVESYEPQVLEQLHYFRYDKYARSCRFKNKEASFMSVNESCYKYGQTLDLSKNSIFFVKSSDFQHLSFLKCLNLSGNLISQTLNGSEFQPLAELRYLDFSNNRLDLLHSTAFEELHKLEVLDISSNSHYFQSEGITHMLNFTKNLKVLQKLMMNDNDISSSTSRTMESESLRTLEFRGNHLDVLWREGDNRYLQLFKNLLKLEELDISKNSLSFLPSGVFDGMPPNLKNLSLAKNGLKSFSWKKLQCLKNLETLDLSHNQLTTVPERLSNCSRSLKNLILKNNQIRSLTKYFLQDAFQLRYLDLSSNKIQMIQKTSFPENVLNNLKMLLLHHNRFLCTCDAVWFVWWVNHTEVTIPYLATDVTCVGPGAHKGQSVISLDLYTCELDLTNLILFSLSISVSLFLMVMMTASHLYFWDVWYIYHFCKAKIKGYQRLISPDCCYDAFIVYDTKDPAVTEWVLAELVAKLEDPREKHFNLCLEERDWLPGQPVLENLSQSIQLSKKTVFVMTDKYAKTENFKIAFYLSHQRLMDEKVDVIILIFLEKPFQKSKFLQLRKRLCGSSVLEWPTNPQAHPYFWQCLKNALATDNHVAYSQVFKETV
The experiment is described as follows: Inhibition of the Activation Assay: As human TLR7 expressing cell line, HEK293 cell line was bought from IMGENEX Corporation (TLR7/NF-ηB/SEAPorter™ HEK293 cell), which is human embryonic kidney cell line and stably expresses full-length human TLR7 gene and secreted alkaline phosphatase (SEAP) reporter gene under the transcriptional control of an NE-ηB response element. The TLR7/NF-ηB/SEAPorter™ HEK293 cell was cultivated with DMEM containing 10% fetal bovine serum (FBS) and 10 μg/mL blasticidin S at 37° C. in the presence of 5% CO2. In general terms: In a reporter assay the amount or activity of a reporter protein is the signal.
On to `CCOc1nc(N)c2nc(-c3cncc(F)c3)n(Cc3ccc(OCCN(C)C)cc3)c2n1`, for which the IC50 was 99 nM.

Regarding `CCOc1nc(N)c2nc(-c3cncc(F)c3)n(Cc3ccc(C4CCN(C)C4)cc3)c2n1` (stereo not given), the concentration for half-maximal inhibition (IC50) is 20 nM.

Turning to `CCOc1nc(N)c2nc(-c3cncc(F)c3)n(Cc3ccc4c(c3)CN(C(=O)CN(C)C)C4)c2n1`, the IC50 is 460 nM.

Consider `CCOc1nc(C)c2nc(-c3cncc(F)c3)n(Cc3cnn(C)c3)c2n1`, for which the IC50 amounted to 2680 nM.

On to `CCOc1nc(N)c2nc(-c3cncc(F)c3)n(Cc3cccc(OCCN(C)C)c3)c2n1`, for which the IC50 was 77 nM.

Turning to `CCOc1nc(N)c2nc(-c3cncc(F)c3)n(Cc3ccnc(OCCN(C)C)c3)c2n1`, the IC50 was determined as 1800 nM.

In the case of `COc1nc(C)c2nc(-c3cncc(F)c3)n(Cc3ccc([C@H]4CN5CCC4CC5)cc3)c2n1`, the IC50 stood at 3 nM.

Take `CCOc1nc(N)c2nc(-c3cncc(F)c3)n(Cc3ccc(OCCN(C)C)nc3)c2n1`: the IC50 turned out to be 810 nM.

In the case of `CCOc1nc(N)c2nc(-c3cncc(F)c3)n(Cc3ccc(OCCCN(C)C)cc3)c2n1`, the IC50 came out at 89 nM.

For the molecule `CCOc1nc(N)c2nc(-c3cncc(F)c3)n(Cc3ccc(F)c(OCCN(C)C)c3)c2n1`, the IC50 turned out to be 420 nM.

Consider `CCOc1nc(N)c2nc(-c3cncc(F)c3)n(Cc3cccc(OCCN(C)C)n3)c2n1`, for which the IC50 was 1430 nM.

As to `CCOc1nc(N)c2nc(-c3cncc(F)c3)n(Cc3ccc(OCCN4CCN(C)CC4)cc3)c2n1`, the IC50 worked out at 67 nM.

Take `CCOc1nc(C)c2nc(-c3cncc(F)c3)n(Cc3ccc(CN4CCN5CC[C@H]4C5)cc3)c2n1`: the IC50 is 63 nM.

Consider `CCCCOc1nc(C)c2nc(-c3cncc(F)c3)n(Cc3ccc(CN(C)C)cc3)c2n1`, for which the IC50 was found to be 200 nM.

With `COc1nc(C)c2nc(-c3cncc(F)c3)n(Cc3ccc(C4=CCN(C(=O)OC(C)(C)C)CC4)cc3F)c2n1`, the IC50 amounted to 291 nM.

`CCCCCc1nc(N)c2nc(-c3cncc(F)c3)n(Cc3ccccc3)c2n1`: the IC50 is 9500 nM.

`CCOc1nc(C)c2nc(-c3cncc(F)c3)n(Cc3ccc(CN4C[C@@H]5C[C@H]4CN5CC)nc3)c2n1`: the IC50 worked out at 230 nM.

For the molecule `CCOc1nc(C)c2nc(-c3cncc(F)c3)n(Cc3ccc(CN4CCN5CCC4C5)cc3)c2n1` (stereo not given), the IC50 was found to be 28 nM.

As for `CCOc1nc(N)c2nc(-c3cncc(F)c3)n(Cc3cc(CN(C)C)no3)c2n1`, the IC50 is 1300 nM.

With `CCOc1nc(N)c2nc(-c3cncc(F)c3)n(Cc3ccc(CN4CCN5CCC4C5)cc3)c2n1` (stereo not given), the IC50 is 51 nM.

Consider `CCOc1nc(N)c2nc(-c3cncc(F)c3)n(Cc3cc(OCCN(C)C)ccn3)c2n1`, for which the 50% inhibitory concentration (IC50) is 5800 nM.

As for `COc1nc(C)c2nc(-c3cncc(F)c3)n(Cc3ccc(C4CCN(C)C4)cc3)c2n1` (stereo not given), the IC50 came out at 84 nM.

Consider `COc1nc(C)c2nc(-c3cncc(F)c3)n(Cc3ccc(CC4CCN(C(=O)OC(C)(C)C)CC4)cc3F)c2n1`, for which the IC50 came out at 355 nM.

On to `CCOc1nc(N)c2nc(-c3cncc(F)c3)n(Cc3ccc(OCCN4CCCC4)nc3)c2n1`, for which the IC50 worked out at 620 nM.

`CCCCOc1nc(N)c2nc(-c3cccc(CN4CCOCC4)c3)n(Cc3ccccc3)c2n1`: the IC50 came out at 13900 nM.

Regarding `CCCCOc1nc(N)c2nc(-c3ccc(CN4CCOCC4)cc3)n(Cc3ccccc3)c2n1`, the IC50 was 8200 nM.

Regarding `COCCOc1nc(N)c2nc(-c3cncc(C)c3)n(Cc3ccccc3)c2n1`, the IC50 was determined as 9100 nM.

Take `CCOc1nc(N)c2nc(-c3cncc(F)c3)n(Cc3ccc(OCCN4CCN(C)CC4)nc3)c2n1`: the IC50 stood at 280 nM.

Regarding `CCOc1nc(C)c2nc(-c3cncc(F)c3)n(Cc3ccc(C4CN5CCC4CC5)cc3)c2n1` (stereo not given), the IC50 stood at 7 nM.

Consider `CCOc1nc(N)c2nc(-c3cncc(F)c3)n(Cc3ccc(F)c(OCCN4CCCC4)c3)c2n1`, for which the IC50 stood at 620 nM.

In the case of `COc1nc(C)c2nc(-c3cnccn3)n(Cc3ccc(C4CN5CCC4CC5)cc3F)c2n1` (stereo not given), the IC50 stood at 43 nM.

For `CCCCOc1nc(N)c2nc(-c3ccc(OCCCN4CCOCC4)cc3)n(Cc3ccccc3)c2n1`, the IC50 amounted to 4100 nM.

`COc1nc(C)c2nc(-c3cccnc3)n(Cc3ccc(O[C@@H]4CN5CCC4CC5)cc3F)c2n1`: the IC50 was 70 nM.

For `CCOc1nc(N)c2nc(-c3cncc(F)c3)n(Cc3ccccc3OC(F)F)c2n1`, the IC50 worked out at 2170 nM.

As for `CCOc1nc(N)c2nc(-c3cncc(F)c3)n(Cc3cccc(OCCCN(C)C)c3)c2n1`, the IC50 turned out to be 60 nM.

These data come from ChEMBL document CHEMBL5727796, “Substituted purine derivative” (2020).
